Source: US20170349548A1, “P21-ACTIVATED KINASE INHIBITOR” (Biosystem Consulting Limited Company, priority 2014, published 2017)
Values joined by “and” are separate entries in the source; they are usually repeats but may differ in a detail not shown here. Identical values can stand only once. Like-named read-outs stand apart in the source and are kept apart here.

Molecular target: T1, Human PAK1 (Homo sapiens, UniProt Q13153)
T1 construct: purchased Promega V4479
Assay: PAK1 inhibitory activity, ADP-Glo kinase assay
Type: biochemical
Conditions: Human PAK1 25 ng, 10 min preincubation with test compound, 40 min with ATP/substrate mix, room temperature, luminescence
Experimental: The PAK inhibitory activities of the dehydrokawain compounds, mimosine or derivatives thereof and cucurbitacin I were determined. Assay of the PAK1 inhibitory activity was carried out using an ADP-Glo™ kinase assay kit (V4479, Promega, Madison, Wis.). Human PAK1 (10 μL) at a reaction concentration of 25 ng was incubated with 5 μL of the test compounds at the respective concentrations for 10 minutes. At the beginning of the reaction, 2.5×ATP/substrate mix (10 μL) was added and incubated for 40 minutes. The reaction was terminated by adding […]. In addition, 50 μL of Kinase detection reagent was added to cause the conversion of ADP to ATP and the emission reaction of freshly synthesized ATP. After incubation for 30 minutes, the intensity of emission in each well was measured by a Microplate Reader (MTP-880Lab, Corona) for 0.5 seconds as integration time. To the blank well was added all of the ingredients except for the test compounds and enzymes. The procedure was conducted at room temperature all the time. The inhibition rate was determined as the value on the kinase activity of control to which the inhibitor was not added.

[1] = read-out: IC50 (PAK1 inhibitory activity)

T1 sequence (Q13153 whole entry): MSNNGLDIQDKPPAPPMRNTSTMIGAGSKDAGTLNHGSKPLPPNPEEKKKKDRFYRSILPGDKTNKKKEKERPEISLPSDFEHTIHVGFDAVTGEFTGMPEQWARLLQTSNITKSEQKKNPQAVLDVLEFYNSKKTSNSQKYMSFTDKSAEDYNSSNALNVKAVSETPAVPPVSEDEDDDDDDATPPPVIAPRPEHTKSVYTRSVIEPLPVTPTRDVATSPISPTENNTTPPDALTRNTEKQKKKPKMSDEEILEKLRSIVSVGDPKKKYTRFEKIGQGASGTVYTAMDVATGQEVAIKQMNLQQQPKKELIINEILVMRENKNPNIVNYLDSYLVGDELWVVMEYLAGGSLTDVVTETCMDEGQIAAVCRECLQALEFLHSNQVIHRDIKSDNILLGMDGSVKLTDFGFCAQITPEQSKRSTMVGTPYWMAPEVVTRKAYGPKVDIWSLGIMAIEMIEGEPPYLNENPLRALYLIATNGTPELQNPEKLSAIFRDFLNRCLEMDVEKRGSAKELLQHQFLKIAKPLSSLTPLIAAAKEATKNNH

N[C@@H](Cn1ccc(=O)c(O)c1)C(=O)N[C@@H](Cc1ccccc1)C(=O)N[C@@H](Cc1ccc(O)cc1)C(=O)N[C@@H](Cc1ccc(O)cc1)C(=O)O [MFYY]
IC50 [1]: 2.3 µM

O=c1c(O)c(-c2ccc(O)c(O)c2)oc2cc(O)cc(O)c12 [Quercetin, quercetin, reference compound]
IC50 [1]: 340 µM

N[C@@H](Cn1ccc(=O)c(O)c1)C(=O)O [Mimosine, β-[N-(3-hydroxy-4-pyridone)]-α-aminopropionic acid]
IC50 [1]: 37 µM

COc1cc(/C=C/c2ccccc2)oc(=O)c1 [DK, 5,6-dehydrokawain]
IC50 [1]: 17 µM and 17.1 µM

N[C@@H](Cn1ccc(=O)c(O)c1)C(=O)N[C@@H](Cc1ccccc1)C(=O)N[C@@H](Cc1ccccc1)C(=O)N[C@@H](Cc1ccc(O)cc1)C(=O)O [MFFY]
IC50 [1]: 0.13 µM

COc1cc(CCc2ccc(OC)c(OC)c2)oc(=O)c1 [H2, 6-(3,4-dimethoxyphenethyl)-4-methoxy-2H-pyran-2-one]
IC50 [1]: 1.2 µM

N[C@@H](Cn1ccc(=O)c(O)c1)C(=O)N[C@@H](Cc1ccccc1)C(=O)N[C@@H](Cc1c[nH]c2ccccc12)C(=O)N[C@@H](Cc1ccc(O)cc1)C(=O)O [MFWY]
IC50 [1]: 0.6 µM

COc1cc(CCc2ccc(O)c(O)c2)oc(=O)c1 [H3, 6-(3,4-dihydroxyphenethyl)-4-methoxy-2H-pyran-2-one]
IC50 [1]: 2 µM

Oc1ccc(C=Cc2cc(O)cc(O)c2)cc1 [Resveratrol, resveratrol, reference compound]
IC50 [1]: 15 µM

N[C@H](CO)Cn1ccc(=O)c(O)c1 [Mimosinol, mimosinol]
IC50 [1]: 30 µM

CC(C)(O)/C=C/C(=O)[C@](C)(O)[C@H]1[C@H](O)C[C@@]2(C)[C@@H]3CC=C4C(C=C(O)C(=O)C4(C)C)[C@]3(C)C(=O)C[C@]12C (stereo partly shown) [Cucurbitacin I, cucurbitacin I]
IC50 (IC50 (PAK1 inhibitory activity)): 19 µM

COc1cc(/C=C/c2ccc(OC)c(OC)c2)oc(=O)c1 [H1, 6-(3,4-dimethoxystyryl)-4-methoxy-2H-pyran-2-one]
IC50 [1]: 1.6 µM

COc1cc(CCc2ccccc2)oc(=O)c1 [DDK, dihydro-5,6-dehydrokawain]
IC50 [1]: 10 µM and 10.3 µM
